Results as given in a melting point compilation (Tetko et al.; mined from patent text by program, amines drawn as free bases though some values may be those of a salt).

`O=C(O)c1cc2cc(Cl)ccc2nc1N[C@@H](CC1CCCCC1)C(=O)O` showed a melting point of 160 to 168 °C.
Work on `COc1ccc(OC)c(CN[C@H]2[C@H]3CCN(C[C@@H]3C(N)=O)[C@H]2C(c2ccccc2)c2ccccc2)c1` (relative stereo) yielded a melting point of 127 to 129 °C.
`COC(=O)c1cc(-c2ccc(OC)c(F)c2)nn(CC(C)C)c1=O` showed a melting point of 119 to 121 °C.
For `CCOP(=O)(/C=C/c1cn(-c2ccccc2)nc1OCc1ccc(OCc2nc(N3CCC(C(=O)O)CC3)sc2C)c(OC)c1)OCC`, the melting point was 159 to 160 °C.
For `CNC(=O)Oc1ccccc1OC`, the melting point was 90 to 92 °C.
Work on `CCOC(=O)C1=C(C)Nc2nc(N3CCOCC3)nc(N3CCOCC3)c2C1c1c(F)c(F)c(F)c(F)c1F` (centres undefined) yielded a melting point of 195 °C.
`CC(C)(C)OC(=O)N[C@@H](Cc1ccc(-c2ccc(F)cc2)cc1)C(=O)OCc1ccccc1` showed a melting point of 103 to 104 °C.
`CC(C)(C)C1=CC(=Nc2ccc(CCC(=O)O)cc2)C=C(C(C)(C)C)C1=O` gave a melting point of 165 to 167 °C.
`CCS(=O)(=O)c1ccc(SC2SCC(O)C(O)C2O)cc1` (centres undefined) showed a melting point of 130 to 135 °C.
`COc1cc(Nc2c(C#N)cnc3ccsc23)c(Cl)cc1Cl` showed a melting point of 208 to 210 °C.
Compound `FC(F)(F)c1ccc(-c2ccnc(Nc3ccccc3)n2)cc1` has a melting point of 162 to 163 °C.
`O=C(O)c1ccccc1Oc1ccc(C(F)(F)F)cc1NS(=O)(=O)c1ccc(C(F)(F)F)cc1` gave a melting point of 175 °C.
`CCN(C)C(=O)C(Cc1ccc(C#N)cc1)NC(=O)C(Cc1ccc(OC)cc1)S(=O)(=O)Nc1ccc(Cl)c(Cl)c1` (centres undefined) showed a melting point of 192 °C.
`NS(=O)(=O)c1cc2c(s1)CCCC2O` (centres undefined) gave a melting point of 102 to 103 °C.
`CC(=O)NCCNC(=O)c1ccccn1` gave a melting point of 96 to 99 °C.
In the case of `CC(C)(C)OC(=O)Nc1ccc(Nc2n[nH]c(N)c2C#N)cc1`, the melting point is reported as 166 to 168 °C.
Compound `COC(=O)c1cnc2c3cc(NC(=O)C4CCCCC4)ccc3ncn2c1=O` has a melting point of 250 to 251 °C.
In the case of `C=CC(O)c1cc(OC)c2oc(-c3ccc(O)c(OC)c3)c(C)c2c1` (centres undefined), the melting point is reported as 164 to 167 °C.
In the case of `CN1C(=O)CCC2(C)c3ccc(CC(=O)O)cc3CCC12` (centres undefined), the melting point is reported as 200 to 202 °C.
Compound `O=C1C(c2ccccc2)SCN1CCCCBr` (centres undefined) has a melting point of 48 to 50 °C.
In the case of `Brc1ccc(N2CCNCC2)nc1`, the melting point is reported as 70.6 °C.
Work on `CC(O)=C(C(=O)OC(c1ccccc1)c1ccccc1)N1C(=O)C(NC(=O)C(NC(=O)OC(C)(C)C)c2ccccc2)C1SS(=O)(=O)c1ccc(C)cc1` (centres undefined) yielded a melting point of 182 to 184 °C.
With `CCC1Cc2cc(OCC(=O)O)c(Cl)cc2C1=O` (centres undefined) the melting point was 132 to 138 °C.
In the case of `CCOC(=O)Cc1oc(-n2cnc3ccccc32)nc1-c1ccc(Cl)cc1`, the melting point is reported as 152 to 153 °C.
With `CCS(=O)(=O)Nc1ccc2[nH]cc(C3=CCN(C)CC3)c2c1` the melting point was 224 to 226 °C.
In the case of `C#Cc1ccc(Nc2c(C(=O)c3ccccn3)ccc(F)c2F)c(F)c1`, the melting point is reported as 109 to 111 °C.
With `COC(=O)C(Cc1cc(Br)c(S(=O)(=O)c2ccc(OC)c(C(C)C)c2)c(Br)c1)C(=O)OC` the melting point was 121 to 123 °C.
For `CC(=O)SCCC(=O)N1[C@@H](c2ccccc2O)SC[C@H]1C(=O)N[C@@H](CCC(=O)O)C(=O)O`, the melting point was 93 to 98 °C.
Compound `CC1OC(n2cc(F)c(NC(=O)OC3CCCCC3)nc2=O)C(O)C1O` (centres undefined) has a melting point of 134 to 136 °C.
`CCOC(=O)C1=C(C)NC(C)=C(C(=O)OCC)C1c1ccc(Cl)cc1` gave a melting point of 151 to 152 °C.
`COc1cc2c(cc1OC)C(=C(C#N)SCC(CN1CCOCC1)OC(=O)c1ccccc1)NCC2` (centres undefined) gave a melting point of 144 °C.
Work on `O=c1c(OC(F)F)cn(-c2cccc(C(F)(F)F)c2)nc1-c1ccnn1-c1ccccc1` yielded a melting point of 132 to 134 °C.
For `O=C(O)c1ccccc1OCCN1CCC(c2cn(CC3CC3)c3ccccc23)CC1`, the melting point was 145 to 147 °C.
With `Cc1c(F)c(F)c(CNc2ccc(O)c(C(=O)O)c2)c(F)c1F` the melting point was 212 °C.
Work on `O=c1ccn(-c2cccc(C(F)(F)F)c2)nc1-c1ccnn1-c1ccc(F)cc1` yielded a melting point of 130 to 131 °C.
For `O=C(O)C(Cc1ccccc1)C(=O)N[C@H](CO)Cc1c[nH]c2ccccc12` (some centres undefined), the melting point was 130 to 131 °C.
`CN1CCN(c2cccc3c2C[C@H](NS(C)(=O)=O)CC3)CC1` gave a melting point of 135 to 137 °C.
For `CCN(CC)CCNC(=NC#N)NCCCSc1nccc(NC(N)=NCC(F)(F)F)n1`, the melting point was 76 to 80 °C.
Compound `CS(=O)(=O)c1ccc(-c2cc(C(=O)CCCO[N+](=O)[O-])nn2-c2ccc(F)cc2)cc1` has a melting point of 134 to 136 °C.
`COCc1nc2cccc(C(=O)OC)c2n1Cc1ccc(-c2ccccc2-c2nnn[nH]2)cc1` gave a melting point of 191 to 194 °C.
`COc1cc(C(=O)O)ccc1S(=O)(=O)n1c(=O)n(C2CCCCC2)c2cc(OC3CCCC3)ccc21` gave a melting point of 245 °C.
Compound `CCCCCS(=O)(=O)NC(=O)/C=C/c1ccc(OCCOC)cc1OCc1ccc(Cl)cc1Cl` has a melting point of 138 °C.
For `CC(=O)Nc1ccc2c(c1)cc(C(=O)c1ccc(F)cc1)n2C`, the melting point was 213 to 215 °C.
In the case of `COC(=O)c1cc2scc(Br)c2nc1C(=O)OC`, the melting point is reported as 165 to 168 °C.
For `CCC(=C(c1ccccc1)c1ccc(C=Cc2noc(C)n2)cc1)c1ccccc1`, the melting point was 158 to 159 °C.
In the case of `CCCCOC(=O)NNc1n[nH]c2cc(Cl)ccc12`, the melting point is reported as 150 to 152 °C.
Compound `CC(Br)c1ccc2c(-c3ccccc3)onc2c1` (centres undefined) has a melting point of 99 to 102 °C.
For `Fc1ccc(CC(=S)N2CCCCC2)cc1`, the melting point was 65.5 to 67.5 °C.
`COC(=O)C1C=CCN2C(=O)C(CCO)(Cc3ccccc3)C(=O)N12` (centres undefined) showed a melting point of 148 to 149 °C.
Work on `O=C1CCC(Nc2ncnc3c2ncn3C2OC(CO)C(O)C2O)N1` (centres undefined) yielded a melting point of 198 to 200 °C.
For `CCCc1c2c(c(N)c3c(=O)cc(C(=O)OCC)oc13)CC(C(=O)OCC)CC2` (centres undefined), the melting point was 102 to 103 °C.
`O=C(O)COc1ccc2c(-c3ccc(Cl)cc3F)noc2c1Cl` showed a melting point of 226 to 227 °C.
Compound `Cc1ccc(Nc2c(C)cc(Cl)cc2Cl)c(CC(=O)N(C)C)c1` has a melting point of 119 to 124 °C.
With `CCCNC(=O)CCn1cnc2c(N)nc3ccccc3c21` the melting point was 212 to 214 °C.
`O=C1c2cccc([N+](=O)[O-])c2C(=O)N1CC(=O)N1c2ccccc2N(Cc2ccccc2)C(=O)[C@H]2CCC[C@H]21` (relative stereo) gave a melting point of 238 to 240 °C.
For `CC(=O)N(C(C)=O)c1c(C#N)cnn1-c1ccc(Cl)c(Cl)c1Cl`, the melting point was 163 to 165 °C.
`O=[N+]([O-])c1cc2c(Nc3ccc(F)c(Cl)c3)ncnc2cc1OC1CCCC1` showed a melting point of 230 °C.
Work on `Cc1cc(S(C)(=O)=O)ccc1C(=O)c1c(S(C)=O)noc1C1CC1` (centres undefined) yielded a melting point of 142 °C.
`Cc1cc(C(=O)O)sn1` showed a melting point of 203 to 204 °C.
Compound `C[C@@](N)(Cc1ccc(-c2cncnc2)cc1)C(=O)Nc1cc(Cl)cc(Cl)c1` has a melting point of 124 to 126 °C.
Work on `O=C(O)c1ccc(C(=O)N(Cc2ccccc2)S(=O)(=O)c2ccc(Br)cc2)cc1` yielded a melting point of 193 to 194 °C.
`CCCCCCC1CC(Cn2cncn2)(c2ccccc2)N(C)O1` (centres undefined) gave a melting point of 93 to 99 °C.
`COc1cc2ccn(C(=O)c3ccc(-c4ccc(-c5noc(C)n5)cc4C)cc3)c2cc1OCCN(C)C` showed a melting point of 130 to 131 °C.
Compound `O=C(O)c1cc([N+](=O)[O-])ccc1NCc1ccco1` has a melting point of 190 to 192 °C.
In the case of `OC1CCCCC1n1c(NC2CC2)nc2cc(Cl)c(Cl)cc21` (centres undefined), the melting point is reported as 149 to 151 °C.
Compound `CCC1CCC(=O)C=C1c1ccc(OCC(=O)O)cc1Cl` (centres undefined) has a melting point of 138 to 140 °C.
Work on `COc1ccc(SCCCCSc2ccc(OC)cc2)cc1` yielded a melting point of 102 to 103 °C.
For `CN(Cc1ccccc1)C1(CNC(=O)c2ccc(Cl)c(Cl)c2)CCCCC1`, the melting point was 139 to 145 °C.
In the case of `COC(=O)C(C)(C)OCC#Cc1cc(C(F)(F)F)ccc1NS(=O)(=O)c1ccc2c(c1)CCN2C(C)=O`, the melting point is reported as 134 to 136 °C.
`O=c1[nH]c2cccnc2n1-c1cc(F)ccc1F` showed a melting point of 229 °C.
Work on `Cn1nc(-c2ccc(C(F)(F)F)cc2)cc1C(=O)O` yielded a melting point of 230 to 232 °C.
In the case of `CCOCC1C(C(=O)O)C1(C)C` (centres undefined), the melting point is reported as 40 to 40.5 °C.
Work on `COc1cc2c(cc1OC(C)C)-c1cc3c(n1CC2)C(=O)N(C(C)(C)C)CCOC3` yielded a melting point of 125 to 127 °C.
`CC(=O)OCc1ccccc1S(N)(=O)=O` gave a melting point of 131 to 133 °C.
In the case of `NS(=O)(=O)c1nc2cc(O)ccc2s1`, the melting point is reported as 224 °C.
Work on `Cc1ccccc1CC(=O)Nc1cc(C)c(S(=O)(=O)C[N+](=O)[O-])c(C)c1` yielded a melting point of 188 to 190 °C.
`OC1c2ccccc2COc2ccc(-c3nnn[nH]3)cc21` (centres undefined) showed a melting point of 335 °C.
In the case of `CCOC(=O)CN1CCC2(CC1)CC(c1ccc(C#N)cc1)=NO2`, the melting point is reported as 116 to 118 °C.
`CCCOc1c(OC)cc([C@H]2CC[C@H](c3cc(OC)c(OC)c(OC)c3)O2)cc1S(=O)(=O)CCO` (relative stereo) gave a melting point of 141 to 142 °C.
Compound `N#CN=C(Nc1cccnc1)NC(NC(=O)c1ccc(Cl)cc1)C12CC3CC(CC(C3)C1)C2` (centres undefined) has a melting point of 209 to 210 °C.
With `CC1=NC(c2ccccc2)c2c(cc[nH]c2=O)N1` (centres undefined) the melting point was 263 to 264 °C.
`O=C1CCC(c2ccccc2)(C2CCNC2)CC1` (centres undefined) showed a melting point of 75 to 79 °C.
With `Clc1nn2nnnc2c2c1CCCC2` the melting point was 109 to 110 °C.
With `CSc1ccc2ccc(N3C(=O)c4ccccc4C3=O)nc2n1` the melting point was 235 °C.
Work on `Cc1ccnc(N=C2SC[C@@H]3Cc4ccccc4CN23)n1` yielded a melting point of 179 °C.
`O=C1CCC(O)(c2nc3ccccc3s2)CC1` showed a melting point of 134 °C.
For `COc1ccc2ccc(NC(=O)c3cccs3)nc2n1`, the melting point was 220 °C.
Compound `COc1ccc(CNC(=O)c2cc3c(=O)n(CCOc4ccc(Br)cc4)c(=O)n(C)c3s2)cc1` has a melting point of 184 to 185 °C.
`Cc1ccc(-n2cccc2-c2ccc(S(N)(=O)=O)cc2)cc1` showed a melting point of 131 to 134 °C.
For `Cc1cc(Sc2ccccc2)ccc1[N+](=O)[O-]`, the melting point was 69 to 75 °C.
With `O=Cc1c2ccccc2c(C=O)c2cc3ccccc3cc12` the melting point was 215 to 217 °C.
With `COc1ccc([N+](=O)[O-])c(C=O)c1OC` the melting point was 106 to 108 °C.
In the case of `Cc1ccc(S(=O)(=O)OCC2Cc3cccc(O)c3O2)cc1` (centres undefined), the melting point is reported as 122 to 125 °C.
For `Oc1ccc(O)c(-c2nc3cc(O)ccc3o2)c1`, the melting point was 309 to 311 °C.
`CC12CC(c3ccc(N)cc3)(C1)C(=O)NC2=O` showed a melting point of 216 °C.
`CS(=O)(=O)c1ccc(-c2nn3c4c(oc3c2-c2ccc(F)cc2)CCCC4)cc1` showed a melting point of 183 to 184 °C.
With `CC1(C)Cc2ccccc2CC(C)(C)C1O` the melting point was 66 to 68 °C.
For `C=CC(=O)N(C)c1cccc2c(=O)c(C)c(-c3ccccc3)oc12`, the melting point was 136 to 137 °C.
Compound `Cc1c(C2CCC(c3ccccc3)(N(C)C)CC2)[nH]c2ccc(F)cc12` (centres undefined) has a melting point of 199 to 205 °C.
